Results from article PMC5578999, “Novel quinolone chalcones targeting colchicine-binding pocket kill multidrug-resistant cancer cells by inhibiting tubulin activity and MRP1 function” (Scientific Reports, 2017).

What was measured:
Assay in all cases: NCI-60 SRB screen
Format in all cases: cell-based
[1] = system: A549/ATCC
Text: (§1) Supplementary Figure l egend
(§2) 10μ M of CTR-20 was used to examine the drug’s efficac y against the NC I-60 cancer cell li nes including: six leukemia cell lines, nine non- small cell lung cancer cell lines, seven color ect al cancer cell lines, six CNS cancer cell lines, nine melanoma cell lines, seven ovari an can cer cell lines, seven ren al can cer cell lines, two prostate cancer cell lines and six breast cancer cell lines. The scr eenin g was car r ied out b y the US National Cancer Institute (NC I) us i n g a sulforhodamine B (SRB) colorimetric assay. […]
(§3) out by the NC I using five different doses of CTR -20.

[2] = system: CCRF-CEM
Text: as §1, §2, §3

[3] = system: HOP-92
Text: as §1, §2, §3

[4] = system: HT29
Text: as §1, §2, §3

[5] = system: M14
Text: as §1, §2, §3

[6] = system: MCF7
Text: as §1, §2, §3

[7] = system: MDA-MB-231/ATCC
Text: as §1, §2, §3

[8] = system: OVCAR-3
Text: as §1, §2, §3

[9] = system: OVCAR-4
Text: as §1, §2, §3

[10] = system: RPMI-8226
Text: as §1, §2, §3

[11] = system: SN12C
Text: as §1, §2, §3

[12] = system: SNB-19
Text: as §1, §2, §3

[13] = Homo sapiens, read-out: LC50 (the source's name)

COc1ccc2[nH]c(=O)c(/C=C/C(=O)c3ccccc3OC)cc2c1 [CTR-20, (E)-6-Methoxy-3-(3-(2-methoxyphenyl)-3-oxoprop-1-enyl) quinolin-2(1H)-one]
Log10GI50 [1]: -5.68 Molar | Log10LC50 [1]: -4.42 Molar | Log10TGI [1]: -4.98 Molar | TGI [1]: 1.04E-5 Molar | Growth Percent ([1]; 1.00E-5 Molar): 10.42% | GI50 ([1]; Homo sapiens): 2.09 µM | CC50 [1, 13]: 37.9 µM | Percent Growth ([1]; Log10 Concentration -4.0): -88% | Percent Growth ([1]; Log10 Concentration -5.0): 2% | Percent Growth ([1]; Log10 Concentration -6.0): 73% | Percent Growth ([1]; Log10 Concentration -7.0): 114% | Percent Growth ([1]; Log10 Concentration -8.0): 106% | Log10GI50 [2]: -6.41 Molar | Log10LC50 [2]: > -4.00 Molar | Log10TGI [2]: > -4.00 Molar | TGI [2]: > 1.00E-4 Molar | Growth Percent ([2]; 1.00E-5 Molar): 7.53% | GI50 ([2]; Homo sapiens): 0.392 µM | LC50 (concentration causing 50% net cell kill) ([2]; Homo sapiens): > 100 µM | Percent Growth ([2]; Log10 Concentration -4.0): 1% | Percent Growth ([2]; Log10 Concentration -5.0): 6% | Percent Growth ([2]; Log10 Concentration -6.0): 19% | Percent Growth ([2]; Log10 Concentration -7.0): 95% | Percent Growth ([2]; Log10 Concentration -8.0): 99% | Log10GI50 [3]: -5.80 Molar | Log10LC50 [3]: -4.57 Molar | Log10TGI [3]: -5.21 Molar | TGI [3]: 6.17E-6 Molar | Growth Percent ([3]; 1.00E-5 Molar): -11.97% | GI50 ([3]; Homo sapiens): 1.57 µM | LC50 ([3]; Homo sapiens): 27 µM | Percent Growth ([3]; Log10 Concentration -4.0): -92% | Percent Growth ([3]; Log10 Concentration -5.0): -18% | Percent Growth ([3]; Log10 Concentration -6.0): 67% | Percent Growth ([3]; Log10 Concentration -7.0): 111% | Percent Growth ([3]; Log10 Concentration -8.0): 107% | Log10GI50 [4]: -6.53 Molar | Log10LC50 [4]: -4.63 Molar | Log10TGI [4]: -5.86 Molar | TGI [4]: 1.37E-6 Molar | Growth Percent ([4]; 1.00E-5 Molar): 7.17% | GI50 ([4]; Homo sapiens, HT-29): 0.293 µM | LC50 ([4]; Homo sapiens, HT-29): 23.7 µM | Percent Growth ([4]; Log10 Concentration -4.0): -73% | Percent Growth ([4]; Log10 Concentration -5.0): -36% | Percent Growth ([4]; Log10 Concentration -6.0): 6% | Percent Growth ([4]; Log10 Concentration -7.0): 89% | Percent Growth ([4]; Log10 Concentration -8.0): 98% | Log10GI50 [5]: -6.56 Molar | Log10LC50 [5]: -4.62 Molar | Log10TGI [5]: -5.85 Molar | TGI [5]: 1.41E-6 Molar | Growth Percent ([5]; 1.00E-5 Molar): 13.82% | GI50 ([5]; Homo sapiens): 0.278 µM | CC50 [5, 13]: 24 µM | Percent Growth ([5]; Log10 Concentration -4.0): -93% | Percent Growth ([5]; Log10 Concentration -5.0): -23% | Percent Growth ([5]; Log10 Concentration -6.0): 4% | Percent Growth ([5]; Log10 Concentration -7.0): 87% | Percent Growth ([5]; Log10 Concentration -8.0): 92% | Log10GI50 [6]: -6.51 Molar | Log10LC50 [6]: > -4.00 Molar | Log10TGI [6]: -5.13 Molar | TGI [6]: 7.48E-6 Molar | Growth Percent ([6]; 1.00E-5 Molar): 10.02% | GI50 ([6]; Homo sapiens): 0.312 µM | CC50 [6, 13]: > 100 µM | Percent Growth ([6]; Log10 Concentration -4.0): -44% | Percent Growth ([6]; Log10 Concentration -5.0): -2% | Percent Growth ([6]; Log10 Concentration -6.0): 16% | Percent Growth ([6]; Log10 Concentration -7.0): 83% | Percent Growth ([6]; Log10 Concentration -8.0): 86% | Log10GI50 [7]: -5.84 Molar | Log10LC50 [7]: -4.40 Molar | Log10TGI [7]: -4.96 Molar | TGI [7]: 1.10E-5 Molar | Growth Percent ([7]; 1.00E-5 Molar): 0.32% | GI50 ([7]; Homo sapiens): 1.44 µM | CC50 [7, 13]: 39.6 µM | Percent Growth ([7]; Log10 Concentration -4.0): -86% | Percent Growth ([7]; Log10 Concentration -5.0): 4% | Percent Growth ([7]; Log10 Concentration -6.0): 59% | Percent Growth ([7]; Log10 Concentration -7.0): 102% | Percent Growth ([7]; Log10 Concentration -8.0): 102% | Log10GI50 [8]: -6.44 Molar | Log10LC50 [8]: -5.03 Molar | Log10TGI [8]: -5.78 Molar | TGI [8]: 1.64E-6 Molar | Growth Percent ([8]; 1.00E-5 Molar): 8.25% | GI50 ([8]; Homo sapiens): 0.359 µM | CC50 [8, 13]: 9.33 µM | Percent Growth ([8]; Log10 Concentration -4.0): -96% | Percent Growth ([8]; Log10 Concentration -5.0): -52% | Percent Growth ([8]; Log10 Concentration -6.0): 14% | Percent Growth ([8]; Log10 Concentration -7.0): 95% | Percent Growth ([8]; Log10 Concentration -8.0): 102% | Log10GI50 [9]: -5.39 Molar | Log10LC50 [9]: -4.11 Molar | Log10TGI [9]: -4.63 Molar | TGI [9]: 2.32E-5 Molar | Growth Percent ([9]; 1.00E-5 Molar): 50.80% | GI50 ([9]; Homo sapiens): 4.07 µM | CC50 [9, 13]: 76.9 µM | Percent Growth ([9]; Log10 Concentration -4.0): -61% | Percent Growth ([9]; Log10 Concentration -5.0): 35% | Percent Growth ([9]; Log10 Concentration -6.0): 73% | Percent Growth ([9]; Log10 Concentration -7.0): 95% | Percent Growth ([9]; Log10 Concentration -8.0): 94% | Log10GI50 [10]: -6.41 Molar | Log10LC50 [10]: > -4.00 Molar | Log10TGI [10]: -5.66 Molar | TGI [10]: 2.21E-6 Molar | Growth Percent ([10]; 1.00E-5 Molar): 5.61% | GI50 ([10]; Homo sapiens): 0.385 µM | CC50 [10, 13]: > 100 µM | Percent Growth ([10]; Log10 Concentration -4.0): -37% | Percent Growth ([10]; Log10 Concentration -5.0): -20% | Percent Growth ([10]; Log10 Concentration -6.0): 10% | Percent Growth ([10]; Log10 Concentration -7.0): 106% | Percent Growth ([10]; Log10 Concentration -8.0): 113% | Log10GI50 [11]: -6.27 Molar | Log10LC50 [11]: -4.44 Molar | Log10TGI [11]: -4.99 Molar | TGI [11]: 1.03E-5 Molar | Growth Percent ([11]; 1.00E-5 Molar): 8.57% | GI50 ([11]; Homo sapiens): 0.537 µM | CC50 [11, 13]: 36.7 µM | Percent Growth ([11]; Log10 Concentration -4.0): -89% | Percent Growth ([11]; Log10 Concentration -5.0): 1% | Percent Growth ([11]; Log10 Concentration -6.0): 32% | Percent Growth ([11]; Log10 Concentration -7.0): 100% | Percent Growth ([11]; Log10 Concentration -8.0): 102% | Log10GI50 [12]: -6.44 Molar | Log10LC50 [12]: -5.05 Molar | Log10TGI [12]: -5.75 Molar | TGI [12]: 1.79E-6 Molar | Growth Percent ([12]; 1.00E-5 Molar): 17.04% | GI50 ([12]; Homo sapiens): 0.362 µM | CC50 [12, 13]: 8.88 µM | Percent Growth ([12]; Log10 Concentration -4.0): -89% | Percent Growth ([12]; Log10 Concentration -5.0): -54% | Percent Growth ([12]; Log10 Concentration -6.0): 18% | Percent Growth ([12]; Log10 Concentration -7.0): 90% | Percent Growth ([12]; Log10 Concentration -8.0): 98%
